This passage reports T/C results from PubChem BioAssay AID296 (DTP/NCI, 2004).

Records with an inconclusive call do not appear.

In the test the test system is MX-1 breast xenograft, nude mice, tumor weight T/C. The experiment in a line: NCI In Vivo Anticancer Drug Screen. Data for tumor model Human Mammary Carcinoma MX-1 Xenograft (intrarenal inoculation) in NU/NU Swiss (nude) mice. The following applies: endpoint: mean tumor weight change, higher = larger tumour. The protocol:
The antitumor activity of compounds was measured in mice bearing transplantable tumors. Survival or tumor size were measured and the results are expressed as the measurement made in the treated group (T) divided by the measurement made in the vehicle treated control group (C). The tumor model used in this assay is Human Mammary Carcinoma MX-1 Xenograft (intrarenal inoculation) in NU/NU Swiss (nude) mice
(In xenograft studies the graft and the host belong to different species.)

[1] abbreviates: dose: 1600.0 mg/kg/injection, schedule: Q01DX010 (sc), vehicle: saline.
The mark [2] stands for this setting: dose: 300.0 mg/kg/injection, schedule: Q04DX003 (sc), vehicle: saline.
Setting [3] is: dose: 600.0 mg/kg/injection, schedule: Q04DX003 (sc), vehicle: saline.
Setting [4] is: dose: 1200.0 mg/kg/injection, schedule: Q04DX003 (sc), vehicle: saline.
[5] abbreviates: dose: 150.0 mg/kg/injection, schedule: Q04DX003 (sc), vehicle: saline with Tween-80.
[6] abbreviates: dose: 300.0 mg/kg/injection, schedule: Q04DX003 (sc), vehicle: saline with Tween-80.
Setting [7] is: dose: 1200.0 mg/kg/injection, schedule: Q04DX003 (sc), vehicle: suspension in saline.
The mark [8] stands for this setting: dose: 2400.0 mg/kg/injection, schedule: Q04DX003 (sc), vehicle: suspension in saline.

As to `COc1cccc2c1C(=O)c1c(O)c3c(c(O)c1C2=O)C[C@@](O)(/C(C)=N/NC(=O)c1cccc([N+](=O)[O-])c1)C[C@@H]3OC1CC(N)C(O)C(C)O1` (stereo partly drawn), the T/C runs as follows: (dose: 4.0 mg/kg/injection, schedule: Q01DX010 (sc), vehicle: water) 89 % of control; (dose: 8.0 mg/kg/injection, schedule: Q01DX010 (sc), vehicle: water) 43 % of control; (dose: 16.0 mg/kg/injection, schedule: Q01DX010 (sc), vehicle: water) 104 % of control.

In the case of `N#Cc1c(-c2ccc(F)cc2)c(-c2ccc(F)cc2)nn(CCO)c1=O`, the T/C reads like this: (dose: 100.0 mg/kg/injection, schedule: Q04DX003 (ip), vehicle: distilled water + Tween-80) 101 % of control; (dose: 200.0 mg/kg/injection, schedule: Q04DX003 (ip), vehicle: distilled water + Tween-80) 80 % of control.

For `Nc1ncnc2c1ncn2C1OC(COP(=O)(O)O)C(O)C1O` (stereo not drawn), the T/C runs as follows: (dose: 100.0 mg/kg/injection, schedule: Q01DX010 (ip), vehicle: saline) 85 % of control; (dose: 200.0 mg/kg/injection, schedule: Q01DX010 (ip), vehicle: saline) 90 % of control; (dose: 333.33 mg/kg/injection, schedule: Q04DX003 (sc), vehicle: saline) 124 % of control; (dose: 400.0 mg/kg/injection, schedule: Q01DX010 (ip), vehicle: saline) 51 % of control; (dose: 666.65 mg/kg/injection, schedule: Q04DX003 (ip), vehicle: saline) 106 % of control; (dose: 666.65 mg/kg/injection, schedule: Q04DX003 (sc), vehicle: saline) 115 % of control. Moreover, the T/C was 6 % of control (dose: 800.0 mg/kg/injection, schedule: Q01DX010 (ip), vehicle: saline); 49 % of control (dose: 1333.3 mg/kg/injection, schedule: Q04DX003 (ip), vehicle: saline); 62 % of control (dose: 1333.3 mg/kg/injection, schedule: Q04DX003 (sc), vehicle: saline); -36 % of control under setting [1]; 29 % of control (dose: 2666.6 mg/kg/injection, schedule: Q04DX003 (ip), vehicle: saline); 76 % of control (dose: 2666.6 mg/kg/injection, schedule: Q04DX003 (sc), vehicle: saline).

For `N#CC(OC1OC(COC2OC(CO)C(O)C(O)C2O)C(O)C(O)C1O)c1ccccc1` (stereo not drawn), the T/C was 67 % of control under setting [2]; 83 % of control under setting [3]; 71 % of control under setting [4]; 75 % of control (dose: 2400.0 mg/kg/injection, schedule: Q04DX003 (sc), vehicle: saline).

With `C[C@@H]1C[C@H]2[C@@H]3CCC4=CC(=O)C=C[C@]4(C)[C@@]3(F)[C@@H](O)C[C@]2(C)[C@@]1(O)C(=O)CO`, the T/C reads like this: (dose: 3.13 mg/kg/injection, schedule: Q01DX010 (sc), vehicle: Klucel (hydroxypropylcellulose) (HPC)) 44 % of control; (dose: 6.25 mg/kg/injection, schedule: Q01DX010 (sc), vehicle: Klucel (hydroxypropylcellulose) (HPC)) 28 % of control; (dose: 12.5 mg/kg/injection, schedule: Q01DX010 (sc), vehicle: Klucel (hydroxypropylcellulose) (HPC)) 35 % of control; (dose: 25.0 mg/kg/injection, schedule: Q01DX010 (sc), vehicle: Klucel (hydroxypropylcellulose) (HPC)) 33 % of control.

On to `CC1(C)OCC2OC=CC(=O)C2O1` (stereo not drawn), for which the T/C reads like this: under setting [5], 79 % of control; under setting [6], 73 % of control; (dose: 600.0 mg/kg/injection, schedule: Q04DX003 (sc), vehicle: saline with Tween-80) 112 % of control.

For `C[Si](C)(C)O/C=C1/CCOC1=O`, the T/C reads like this: under setting [7], 105 % of control; under setting [8], 157 % of control.

Regarding `N=c1ccn2c(n1)OC1C(O)C(CO)OC12` (stereo not drawn), the T/C (dose: 150.0 mg/kg/injection, schedule: Q04DX003 (sc), vehicle: saline) was 102 % of control; the T/C under setting [2] is 84 % of control; the T/C (dose: 400.0 mg/kg/injection, schedule: Q04DX003 (sc), vehicle: saline) is 95 % of control; the T/C under setting [3] is 42 % of control; the T/C (dose: 600.0 mg/kg/injection, schedule: Q04DX003 (sc), vehicle: suspension in saline) is 70 % of control; the T/C (dose: 800.0 mg/kg/injection, schedule: Q04DX003 (sc), vehicle: saline) is 69 % of control. Besides, the T/C is 50 % of control under setting [4]; 55 % of control under setting [7]; 64 % of control (dose: 1600.0 mg/kg/injection, schedule: Q04DX003 (sc), vehicle: saline); 70 % of control under setting [8].

As to `CC(=O)OCC1OC(n2ccc(N)nc2=O)C(OC(C)=O)C1OC(C)=O` (stereo not drawn), the T/C by setting is: (dose: 150.0 mg/kg/injection, schedule: Q04DX003 (sc), vehicle: suspension in saline) 89 % of control; under setting [2], 107 % of control; under setting [3], 82 % of control; under setting [4], 84 % of control; under setting [8], 14 % of control.

As to `CN=C(N)N/N=C(\C)c1ccc2c(c1)Cc1cc(/C(C)=N/NC(N)=NC)ccc1-2`, the T/C is 46 % of control (dose: 6.0 mg/kg/injection, schedule: Q04DX003 (sc), vehicle: saline with Tween-80); 84 % of control (dose: 12.0 mg/kg/injection, schedule: Q04DX003 (sc), vehicle: saline with Tween-80); 100 % of control (dose: 24.0 mg/kg/injection, schedule: Q04DX003 (sc), vehicle: saline with Tween-80); 58 % of control (dose: 48.0 mg/kg/injection, schedule: Q04DX003 (sc), vehicle: saline with Tween-80).

On to `C=C1C(=O)O[C@@H]2[C@H](O)[C@@H](C)[C@@H]3C=CC(=O)[C@@]3(C)[C@H](OC(=O)C=C(C)C)[C@H]12`, for which the T/C is 65 % of control (dose: 9.38 mg/kg/injection, schedule: Q04DX003 (sc), vehicle: saline with Tween-80); 105 % of control (dose: 18.75 mg/kg/injection, schedule: Q04DX003 (sc), vehicle: saline with Tween-80); 84 % of control (dose: 37.5 mg/kg/injection, schedule: Q04DX003 (sc), vehicle: saline with Tween-80).

For the compound `CC(=O)NC(CCc1ccc(Cl)c(Cl)c1)c1cccc(O)c(=O)c1` (stereo not drawn), the T/C is 95 % of control (dose: 50.0 mg/kg/injection, schedule: Q04DX003 (sc), vehicle: Klucel (hydroxypropylcellulose) (HPC)); 69 % of control (dose: 100.0 mg/kg/injection, schedule: Q04DX003 (sc), vehicle: Klucel (hydroxypropylcellulose) (HPC)); 90 % of control (dose: 200.0 mg/kg/injection, schedule: Q04DX003 (sc), vehicle: Klucel (hydroxypropylcellulose) (HPC)); 119 % of control (dose: 400.0 mg/kg/injection, schedule: Q04DX003 (sc), vehicle: Klucel (hydroxypropylcellulose) (HPC)).

Take `C[C@H](N)C(=O)N[C@@H]1[C@H]2C(=C(O)C[C@@H](O)[C@@H]2O)C(=O)O[C@]1(C)C(Cl)Cl`: the T/C reads like this: (dose: 1.5 mg/kg/injection, schedule: Q04DX003 (sc), vehicle: Klucel (hydroxypropylcellulose) (HPC)) 153 % of control; (dose: 6.0 mg/kg/injection, schedule: Q04DX003 (sc), vehicle: Klucel (hydroxypropylcellulose) (HPC)) 92 % of control.

On to `CCCCCCNc1nc(NCCCCCC)c2[nH]c(NCCCCCC)nc2n1`, for which, under “dose: 300.0 mg/kg/injection, schedule: Q04DX003 (ip), vehicle: saline with Tween-80”, the T/C is 75 % of control.

`COc1cc2cc(c1Cl)N(C)C(=O)C[C@H](OC(=O)[C@H](C)N(C)C(C)=O)[C@]1(C)O[C@H]1[C@H](C)[C@@H]1C[C@@](O)(NC(=O)O1)[C@H](OC)C=C/C=C(\C)C2`: the T/C was 99 % of control (dose: 50.0 micrograms/kg/injection, schedule: Q01DX010 (sc), vehicle: Klucel (hydroxypropylcellulose) (HPC)); 67 % of control (dose: 100.0 micrograms/kg/injection, schedule: Q01DX010 (sc), vehicle: Klucel (hydroxypropylcellulose) (HPC)); -74 % of control (dose: 200.0 micrograms/kg/injection, schedule: Q01DX010 (sc), vehicle: Klucel (hydroxypropylcellulose) (HPC)).

With `Cc1cc(=O)n2c3c(c4c(cc13)c(CN(C)C)cc(=O)n4C)OC2`, the T/C was 109 % of control (dose: 75.0 mg/kg/injection, schedule: Q04DX003 (sc), vehicle: saline with Tween-80); 151 % of control under setting [5]; 80 % of control under setting [6].

In the case of `O=C1OC(C(O)CO)C(O)=C1O` (stereo not drawn), the T/C (dose: 200.0 mg/kg/injection, schedule: Q01DX010 (sc), vehicle: saline) was 107 % of control; the T/C (dose: 400.0 mg/kg/injection, schedule: Q01DX010 (sc), vehicle: saline) was 110 % of control; the T/C under setting [1] is 121 % of control.
